Measurements: patent US20260000656A1, “ANTIFUNGAL AGENTS WITH ENHANCED ACTIVITY IN ACIDIC PH” (Scynexis, Inc., priority 2017, published 2026)
Where two headings read alike, the source gives them in different places.

Tests used:
VVC = conditions: oral fluconazole, share of VVC cases, Diflucan label (May 2011); cited from earlier work
[1] = tested on: vulvovaginal candidiasis (Candida spp.); type: in vivo, human; conditions: for rate of mycological eradication: SCY-078 combined arms / fluconazole arm; for Therapeutic cure (clinical cure and mycological eradication) / mycological eradication / clinical cure: ITT population; for Therapeutic cure (clinical cure and mycological eradication): Day 24 Test-of-Cure visit; for Therapeutic cure (clinical cure and mycological eradication) / mycological eradication: combined SCY-078 arms (n = 64) / fluconazole 150 mg (n = 32); for mycological eradication / clinical cure: Test-of-Cure visit (Day 24); for clinical cure: combined SCY-078 arms (n = 64, 1250 mg then 750 mg QD for 2 or 4 days) / fluconazole 150 mg single dose (n = 32)
Experimental: As a first step of the feasibility evaluation, a proof-of-concept exploratory trial in 96 patients with moderate to severe acute VVC was conducted. Subjects received SCY-078 tablets orally, administered at a dose of 1250 mg on day 1, followed by 750 mg once a day for 2 or 4 days. A comparator group of patients receiving oral fluconazole at the approved dose (150 mg, single dose) was also included.
This study was a proof-of-concept study conducted to evaluate the safety and efficacy of two dosing regimens of oral SCY-078 (administered as the phosphate salt) in subjects presenting with moderate to severe VVC.
Key criteria for inclusion included: • 1. Subjects with moderate to severe VVC, confirmed by positive potassium hydroxide (KOH) test from a vaginal secretion sample • 2. Three vaginitis episodes in the past year that were either confirmed to be caused by Candida spp. or that responded to antifungal therapy
Subjects were randomized in a 1:1:1 ratio to one of the three treatment arms: Oral SCY-078 loading dose of 1250 mg SCY-078, followed by 750 mg SCY-078 QD for 2 days or for 4 days, or Oral Fluconazole 150 mg for 1 day.
Subjects were evaluated on Day 24 (Test-of-Cure visit), Day 60, Day 90, and 120 days (end of study).
The analyses included clinical cure (all signs and symptoms present at baseline improved by at least two points (e.g., from moderate to absent or from severe to mild); after the study started, the FDA proposed that clinical cure is achieved if all signs and symptoms present at baseline are absent), mycological eradication (a negative culture for the baseline yeast pathogen), and therapeutic cure (both clinical cure and mycological eradication). Clinical cure has been proposed by the FDA as the primary endpoint for assessment of efficacy in VVC.
Ninety-six subjects were enrolled (intent-to-treat (ITT) population), and 70 subjects had cultured-confirmed Candida spp. infection (per protocol (PP) population).

[2] = tested on: acute VVC (Candida spp. vaginal infection); assay: clinical; type: in vivo, human; conditions: for mycological eradication / percentage of patients showing an S&S score of 0 or 1 / mean S&S score / percentage of patients with 0-or-1 S&S score / percentage of patients with clinical cure: SCY-078 600 mg dose arm / fluconazole arm; for mean S&S score: scale 0 to 18; for clinical cure / clinical cure, number of patients: Day 10 Test-of-Cure, mITT, SCY-078 600 mg (300 mg BID 1 day, n=27) / fluconazole 150 mg (n=24); for percentage of patients with 0-or-1 S&S score / percentage of patients with clinical cure: Day 25 Follow-Up visit; for patients who received rescue antifungal medication: through Day 25 Follow-Up, SCY-078 600 mg (n=27) / fluconazole (n=24)
Experimental: A Phase 2 study was conducted to evaluate the safety, efficacy, tolerability, and pharmacokinetics of five dose regimens of oral SCY-078 (administered as the citrate salt) compared to oral fluconazole in adult, female patients with moderate-to-severe acute VVC (defined as having a signs and symptoms (S&S) score of 7 or greater). A total of 186 intent-to-treat (ITT) patients were randomized into six different treatment arms as follows: five different dosing regimens of oral SCY-078 and one oral fluconazole treatment arm. The modified intent-to-treat (mITT) population was used for efficacy analysis and included 153 patients with culture-confirmed Candida spp. vaginal infection (positive microscopic examination of vaginal secretions showing yeast, vaginal pH≤4.5) at baseline. The doses of SCY-078 tested ranged from 600 mg to 1800 mg total dose administered over the duration of treatment, and the durations of treatment were 1 or 3 days:
The primary efficacy endpoint was clinical cure, which according to current FDA guidance is defined as complete resolution (score=0) of all signs and symptoms at the Day 10 Test-of-Cure visit without the need of additional antifungal therapy. Secondary endpoints included mycological eradication (negative culture) and a composite endpoint including both clinical cure and mycological eradication. Response was also evaluated based on the percent of patients achieving a noticeable improvement in their signs and symptoms, either by achieving an S&S score of 0 or 1 or an absolute change (reduction) in mean composite S&S score from baseline. An S&S score is based on a patient's reported symptoms (burning, itching, and irritation) and investigator-assessed signs (swelling, redness, and excoriations); each sign and symptom can be absent, mild, moderate, or severe, with a corresponding score from 0 to 3; the total composite scale is 0 to 18 points. Response was further evaluated by assessing the number of patients who received rescue antifungal therapy. Patients were assessed at the Day 10 Test-of-Cure visit and also at a Day 25 Follow-Up visit. The study was not designed to achieve statistically significant differences in any of the evaluated endpoints.

[3] = Day 24, per protocol population, SCY-078 Combined (n = 50) / Fluconazole (n = 20)
[4] = Month 4, SCY-078 Combined (n = 50) / Fluconazole (n = 20)
[5] = Day 24, per protocol population
[6] = Day 24, per protocol population, SCY-078 3-Days arm (n = 24)
[7] = Day 24, per protocol population, SCY-078 5-Days arm (n = 26)
[8] = Month 4, SCY-078 3-Days arm (n = 24)
[9] = Month 4, SCY-078 5-Days arm (n = 26)

For `OC(Cn1cncn1)(Cn1cncn1)c1ccc(F)cc1F` [Fluconazole, reference compound], the “therapeutic cure (complete resolution of signs and symptoms, negative KOH examination and negative culture)” value (VVC) is given as “approximately half”, the “Clinical Cure (Updated FDA Definition), rate” value [1, 3] is given as 55% and the “Clinical Cure, rate” value [1, 3] is given as 65%. For the same molecule, the “rate of mycological eradication” value ([1]; Day 24) was 65%, the “Therapeutic cure (clinical cure and mycological eradication)” value [1] was 56.3% and the “Therapeutic cure (clinical cure and mycological eradication)” value ([1]; listed as fluconazole) was 56.3%. For the same molecule, the mycological eradication [1] was 68.8%, the clinical cure [1] was 65.6% and the “Clinical Cure, rate” value [1, 4] was 65%. The “Recurrences Requiring Antifungal Therapy, rate” value [1, 4] was 15%, the ““0” Signs and Symptoms, rate” value [1, 4] was 65% and the “rate of mycological eradication” value ([1]; Month 4) was 60%. The mycological eradication ([2]; Day 10, mITT) was 63%, the “percentage of patients showing an S&S score of 0 or 1” value ([2]; Day 10, mITT) was 71% and the “mean S&S score” value ([2]; Day 10, mITT) was 1.8. For the same molecule, the clinical cure [2] was 58%, the “clinical cure, number of patients” value [2] was 14 and the mycological eradication ([2]; Day 25) was 38%. For the same molecule, the “mean S&S score” value ([2]; Day 25) was 2.6, the “percentage of patients with 0-or-1 S&S score” value [2] was 58% and the “percentage of patients with clinical cure” value [2] was 50%. For the same molecule, the “patients who received rescue antifungal medication” value [2] was 29%.

With `CC(C)[C@@H](C)[C@@]1(C)CC[C@]2(C)[C@H]3CC[C@@H]4[C@@]5(COC[C@]4(C)[C@@H](OC[C@](C)(N)C(C)(C)C)[C@H](n4ncnc4-c4ccncc4)C5)C3=CC[C@@]2(C)[C@@H]1C(=O)O` [SCY-078] the “% Δ SCY-078 (combined) vs. Fluconazole, Clinical Cure” value [1, 5] was 11%, the “% Δ SCY-078 (combined) vs. Fluconazole, Clinical Cure (Updated FDA Definition)” value [1, 5] was 15% and the “Clinical Cure (Updated FDA Definition), rate” value [1, 6] was 70.8%. For the same molecule, the “Clinical Cure, rate” value [1, 6] was 79.2%, the “Clinical Cure (Updated FDA Definition), rate” value [1, 7] was 69.2% and the “Clinical Cure, rate” value [1, 7] was 73.1%. For the same molecule, the “Clinical Cure (Updated FDA Definition), rate” value [1, 3] was 70%, the “Clinical Cure, rate” value [1, 3] was 76% and the “rate of mycological eradication” value ([1]; Day 24) was 70%. For the same molecule, the “Therapeutic cure (clinical cure and mycological eradication)” value [1] was 56.3%, the mycological eradication [1] was 70.3% and the clinical cure [1] was 78.1%. For the same molecule, the “% Δ SCY-078 (combined) vs. Fluconazole, Clinical Cure” value ([1]; Month 4) was 23%, the “% Δ SCY-078 (combined) vs. Fluconazole, Recurrences Requiring Antifungal Therapy” value ([1]; Month 4) was −11% and the “% Δ SCY-078 (combined) vs. Fluconazole, “0” Signs and Symptoms” value ([1]; Month 4) was 15%. For the same molecule, the “Clinical Cure, rate” value [1, 8] was 87.5%, the “Recurrences Requiring Antifungal Therapy, rate” value [1, 8] was 4.2% and the ““0” Signs and Symptoms, rate” value [1, 8] was 79.1%. The “Clinical Cure, rate” value [1, 9] was 88.46%, the “Recurrences Requiring Antifungal Therapy, rate” value [1, 9] was 3.8% and the ““0” Signs and Symptoms, rate” value [1, 9] was 80.7%. The “Clinical Cure, rate” value [1, 4] was 88%, the “Recurrences Requiring Antifungal Therapy, rate” value [1, 4] was 4% and the ““0” Signs and Symptoms, rate” value [1, 4] was 80%. For the same molecule, the “rate of mycological eradication” value ([1]; Month 4) was 74%, the “GI adverse events (e.g., nausea, diarrhea)” value ([1]; in vivo) was “higher rate of GI adverse events” and the mycological eradication ([2]; Day 10, mITT) was 63%. For the same molecule, the “percentage of patients showing an S&S score of 0 or 1” value ([2]; Day 10, mITT) was 70%, the “mean S&S score” value ([2]; Day 10, mITT) was 1.0 and the clinical cure [2] was 52%. The “clinical cure, number of patients” value [2] was 14, the mycological eradication ([2]; Day 25) was 48% and the “mean S&S score” value ([2]; Day 25) was 0.4. For the same molecule, the “percentage of patients with 0-or-1 S&S score” value [2] was 81%, the “percentage of patients with clinical cure” value [2] was 70% and the “patients who received rescue antifungal medication” value [2] was 4%.
